# Key:
# Format in all cases: in vivo, male Wistar rats
# [1] = tested on: rat left ventricle wall thickening; assay: Test 1: effect to suppress left ventricle wall thickening in rats administered with L-NAME; details: compared with L-NAME alone; drinking water with L-NAME 1 g/L plus VPP 0.3 g/L or Enalapril 0.5 mg/L, ad libitum for eight weeks; FIG. 1
# Method: The tripeptide Val Pro Pro (VPP) was tested for the effect of suppressing the thickening of the left ventricle. The test was carried out using three groups of male Wistar rats of seven weeks old (Japan SLC, Inc.), each of which group consisted of 9 to 12 rats. […] The dose of Enalapril was determined such that its activity to inhibit ACE was equivalent to VPP's.
# (§1) The rats were sacrificed by exsanguination under diethylether anesthesia. […] The sliced thin sections were stained with hematoxylin and eosin and the thickness of the left ventricle wall was measured. As for the measurement of the thickness of the ventricle wall, the thickness of a plural of the points per one section, each of which point was considered to have an average thickness, was actually measured with an ocular micrometer under a microscope. The average thickness was defined as the measured value of the section and subjected to statistical analysis. […]
# [2] = tested on: rat right ventricle wall thickening; assay: Test 2: effect to suppress right ventricle wall thickening in rats administered with L-NAME; details: compared with L-NAME alone; drinking water with L-NAME 1 g/L plus VPP 0.3 g/L or Enalapril 0.5 mg/L, ad libitum for eight weeks; FIG. 2
# [3] = tested on: rat left ventricle wall thickening; assay: Test 3: effect to suppress left ventricle wall thickening in rats administered with L-NAME; details: compared with L-NAME alone; drinking water with L-NAME 1 g/L plus IPP 0.3 g/L or Enalapril 0.5 mg/L, ad libitum for eight weeks; FIG. 3
# Method: (§2) The tripeptide Ile Pro Pro (IPP) was also tested for the suppressive effect against the thickening of the ventricle wall. The test was carried out using three groups of male Wistar rats of seven weeks old (Japan SLC, Inc.), each of which group consist of 9 to 11 rats. After acclimation for a week, the animals received: water with L-NAME (manufactured by Sigma) being dissolved at a concentration of 1 g/L; water with L-NAME and IPP being dissolved at a concentration of 1 g/L and 0.3 g/L respectively; or water with L-NAME and angiotensin converting enzyme (ACE) inhibitor, Enalapril at a concentration of 1 g/L and 0.5 mg/L respectively, ad libitum for eight weeks. The dose of Enalapril was determined such that its activity to inhibit ACE was equivalent to the activity of IPP to inhibit ACE.
# as §1, with “for” for “per”
# [4] = tested on: rat right ventricle wall thickening; assay: Test 4: effect to suppress right ventricle wall thickening in rats administered with L-NAME; details: L-NAME 1 g/L plus IPP 0.3 g/L or Enalapril 0.5 mg/L in water, eight weeks; for Normal (right ventricle wall equal to or smaller than reference value) / Thickening Positive (right ventricle wall thicker than reference value of rats without L-NAME): likelihood-ratio test, IPP group p < 0.01
# Method: In order also to check the effect of the tripeptide Ile Pro Pro (IPP) to suppress the thickening of the right ventricle wall, a test was carried out in the same manner as in Test 3, and measurement and evaluation were made.
# as §2, with “The” for “The tripeptide Ile Pro Pro (IPP) was also tested for the suppressive effect against the thickening of the ventricle wall. The”, “12” for “11”, “animal” for “animals”
# The rats were sacrificed by exsanguination under diethylether anesthesia. The heart was enucleated and then fixed with 10% neutral buffered formalin solution. Annularly-shaped tissue samples were prepared from the fixed heart by horizontally excising the lower part of the atria such that the right ventricle, septum, left ventricle, and coronary artery were included. The specimen were embedded in paraffin and cut into thin sections with a thickness of 3.0 to 3.5 μm using a microtome. Two to five sections per rat were prepared. Slices of the thin sections were stained with hematoxylin and eosin and the thickness of the right ventricle wall was measured. As for the measurement of the thickness of the ventricle wall, the thickness of a plural of the points for one section, each of which point was considered to have an average thickness, was actually measured with an ocular micrometer under a microscope. The average thickness was defined as the measured value of the section and the thickness of the ventricle wall of each individual was determined. The measurement and evaluation of the thickness was carried out by a pathologist who was not informed of the name of each sample.
# The evaluation of the thickening of the ventricle wall involved the measurement of the thickness of the ventricle wall of six rats of the same age in weeks, which rats were fed with general tap water with no L-NAME being added. The average of those was defined as a reference value. In cases where the thickness of its ventricle wall was larger than the reference value, a rat was defined as one with the thickening, whereas in cases where the thickness of its ventricle wall was equal to or smaller than the reference value, a rat was considered to be normal. Using the number of the rats with the thickening and the normal rats, comparisons by likelihood-ratio test were made.
# [5] = tested on: rat heart septal wall thickening; assay: Test 5: effect to suppress heart septal wall thickening in rats administered with L-NAME; details: compared with L-NAME alone; drinking water with L-NAME 1 g/L plus IPP 0.3 g/L or Enalapril 0.5 mg/L, ad libitum for eight weeks; FIG. 4
Compound,thickness of the left ventricle wall [1],thickness of the right ventricle wall [2],thickness of the left ventricle wall [3],suppression of the thickening of the right ventricle wall (result in words) [4],Normal (right ventricle wall equal to or smaller than reference value) [4] [rats],Thickening Positive (right ventricle wall thicker than reference value of rats without L-NAME) [4],thickness of the heart septal wall [5]
CCOC(=O)[C@H](CCc1ccccc1)N[C@@H](C)C(=O)N1CCC[C@H]1C(=O)O [Enalapril],did not exhibit the effect,did not show such an effect,did not exhibit such an effect,did not exhibit such an effect,8,1 rat^ rats,did not exhibit the effect
Ile Pro Pro [IPP],,,showed a decrease in the thickness of the left ventricle wall,suppressed the thickening of the right ventricle wall,9,0 rats,showed a decrease in the thickness of the heart septal wall
Val Pro Pro [VPP],showed a decrease in the thickness of the left ventricle wall,showed a decrease in the thickness of the right ventricle wall,,,,,

# — patent US8673854B2, “Prophylactic agent for heart failure” (Calpis Co., Ltd., priority 2007, dated 2014)
